Experimental data published in US8268827B2, “Pyridazinone derivatives as PARP inhibitors” (Istituto di Ricerche di Biologia Molecolare P. Angeletti …, priority 2007, dated 2012).
Where a name gives a salt, the structure may show the parent alone.

Test system: BRCA-1 silenced HeLa cells (HeLa shBRCA1-GFP)
Assay: Proliferation assay in BRCA-1 silenced HeLa cells
Type: cell-based
Settings: Homo sapiens; BRCA1 silenced HeLa cells, 168 hours; read-out: CC50 in the BRCA1 silenced HeLa cells
Method in brief: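 HeLa cells with lentiviral shRNA BRCA1 knockdown (>80%), compared with control-vector HeLa, seeded at 300 cells/well. Compound exposure lasted 168 h at 37° C. Viability was read as resazurin-to-resorufin fluorescence (ex 550/em 590 nm).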

Structure (SMILES)	CC50
Cc1c(Cc2ccc(F)c(C(=O)N3CC(=O)N(C4COc5ccccc5C4)C(C)C3)c2)n[nH]c(=O)c1C (stereo not drawn) [Example 132, 6-(3-{[4-(3,4-Dihydro-2H-chromen-3-yl)-3-methyl-5-oxopiperazin-1-yl]carbonyl}-4-fluorobenzyl)-4,5-dimethylpyridazin-3(2H)-one trifluoroacetate]	< 50 nM
O=C(c1cc(Cc2cc(C(F)(F)F)c(=O)[nH]n2)ccc1F)N1CCN([C@H]2CCCOC2)C(=O)C1 [Example 153, 6-[4-fluoro-3-({3-oxo-4-[(3S)-tetrahydro-2H-pyran-3-yl]piperazin-1-yl}carbonyl)benzyl]-4-(trifluoromethyl)pyridazin-3(2H)-one]	50 to 500 nM
O=C(c1cc(Cc2cc(C(F)(F)F)c(=O)[nH]n2)ccc1F)N1CCN([C@@H]2CCCOC2)C(=O)C1 [Example 154, 6-[4-fluoro-3-({3-oxo-4-[(3R)-tetrahydro-2H-pyran-3-yl]piperazin-1-yl}carbonyl)benzyl]-4-(trifluoromethyl)pyridazin-3(2H)-one]	< 5000 nM
CCN1C(=O)CN(C(=O)c2cc(Cc3n[nH]c(=O)c(C(F)(F)F)c3C)ccc2F)C[C@@H]1C [Example 155, 6-(3-{[(3S)-4-ethyl-3-methyl-5-oxopiperazin-1-yl]carbonyl}-4-fluorobenzyl)-5-methyl-4-(trifluoromethyl)pyridazin-3(2H)-one]	< 50 nM
CCN1C(=O)CN(C(=O)c2cc(Cc3n[nH]c(=O)c(C(F)(F)F)c3C)ccc2F)C[C@H]1C [Example 156, 6-(3-{[(3R)-4-ethyl-3-methyl-5-oxopiperazin-1-yl]carbonyl}-4-fluorobenzyl)-5-methyl-4-(trifluoromethyl)pyridazin-3(2H)-one]	< 50 nM
Cc1c(Cc2ccc(F)c(C(=O)N3CC(=O)N([C@@H]4CCOC4)[C@@H](C)C3)c2)n[nH]c(=O)c1C [Example 157, 6-[4-fluoro-3-({(3S)-3-methyl-5-oxo-4-[(3R)-tetrahydrofuran-3-yl]piperazin-1-yl}carbonyl)benzyl]-4,5-dimethylpyridazin-3(2H)-one]	50 to 500 nM
Cc1c(Cc2ccc(F)c(C(=O)N3CC(=O)N([C@@H]4CCOC4)[C@H](C)C3)c2)n[nH]c(=O)c1C [Example 158, 6-[4-fluoro-3-({(3R)-3-methyl-5-oxo-4-[(3R)-tetrahydrofuran-3-yl]piperazin-1-yl}carbonyl)benzyl]-4,5-dimethylpyridazin-3(2H)-one]	50 to 500 nM
CCc1cc(Cc2ccc(F)c(C(=O)N3CCN([C@H]4CCc5ccccc5C4)C(=O)C3)c2)n[nH]c1=O [Example 159, 4-ethyl-6-[4-fluoro-3-({3-oxo-4-[(2S)-1,2,3,4-tetrahydronaphthalen-2-yl]piperazin-1-yl}carbonyl)benzyl]pyridazin-3(2H)-one]	< 50 nM
CCc1cc(Cc2ccc(F)c(C(=O)N3CCN([C@@H]4CCc5ccccc5C4)C(=O)C3)c2)n[nH]c1=O [Example 160, 4-ethyl-6-[4-fluoro-3-({3-oxo-4-[(2R)-1,2,3,4-tetrahydronaphthalen-2-yl]piperazin-1-yl}carbonyl)benzyl]pyridazin-3(2H)-one]	50 to 500 nM
CC[C@H](C)N1CCN(C(=O)c2cc(Cc3n[nH]c(=O)c(C)c3C)ccc2F)CC1=O [Example 161, 6-[4-Fluoro-3-({4-[(1S)-1-methylpropyl]-3-oxopiperazin-1-yl}carbonyl)benzyl]-4,5-dimethylpyridazin-3(2H)-one]	< 50 nM
COCC(C)N1CCN(C(=O)c2cc(Cc3n[nH]c(=O)c(C)c3C)ccc2F)CC1=O (stereo not drawn) [Example 162, 6-(4-Fluoro-3-{[4-(2-methoxy-1-methylethyl)-3-oxopiperazin-1-yl]carbonyl}benzyl)-4,5-dimethylpyridazin-3(2H)-one]	< 50 nM
Cc1c(Cc2ccc(F)c(C(=O)N3CC(=O)N(C4CCC4)C(C)C3)c2)n[nH]c(=O)c1C (stereo not drawn) [Example 163, 6-{3-[(4-Cyclobutyl-3-methyl-5-oxopiperazin-1-yl)carbonyl]-4-fluorobenzyl}-4,5-dimethylpyridazin-3(2H)-one]	< 50 nM
CCC1CN(C(=O)c2cc(Cc3n[nH]c(=O)c(C)c3C)ccc2F)CC(=O)N1C1CCC1 (stereo not drawn) [Example 164, 6-{3-[(4-Cyclobutyl-3-ethyl-5-oxopiperazin-1-yl)carbonyl]-4-fluorobenzyl}-4,5-dimethylpyridazin-3(2H)-one]	50 to 500 nM
Cc1c(Cc2ccc(F)c(C(=O)N3CC(=O)N(c4cccc(Cl)c4)C(C)C3)c2)n[nH]c(=O)c1C (stereo not drawn) [Example 165, 6-(3-{[4-(3-Chlorophenyl)-3-methyl-5-oxopiperazin-1-yl]carbonyl}-4-fluorobenzyl)-4,5-dimethylpyridazin-3(2H)-one]	< 50 nM
Cc1c(Cc2ccc(F)c(C(=O)N3CC(=O)N(c4ccc(C#N)cc4)[C@@H](C)C3)c2)n[nH]c(=O)c1C [Example 166, 4-((2S)-4-{5-[(4,5-Dimethyl-6-oxo-1,6-dihydropyridazin-3-yl)methyl]-2-fluorobenzoyl}-2-methyl-6-oxopiperazin-1-yl)benzonitrile]	< 50 nM
CCC(CC)N1CCN(C(=O)c2cc(Cc3n[nH]c(=O)c(C)c3C)ccc2F)CC1=O [Example 167, 6-(3-{[4-(1-Ethylpropyl)-3-oxopiperazin-1-yl]carbonyl}-4-fluorobenzyl)-4,5-dimethylpyridazin-3(2H)-one]	< 50 nM
CC[C@@H](C)N1CCN(C(=O)c2cc(Cc3n[nH]c(=O)c(C)c3C)ccc2F)CC1=O [Example 168, 6-[4-Fluoro-3-({4-[(1R)-1-methylpropyl]-3-oxopiperazin-1-yl}carbonyl)benzyl]-4,5-dimethylpyridazin-3(2H)-one]	< 50 nM
COC[C@H](C)N1CCN(C(=O)c2cc(Cc3n[nH]c(=O)c(C)c3C)ccc2F)CC1=O [Example 169, 6-[4-Fluoro-3-({4-[(1S)-2-methoxy-1-methylethyl]-3-oxopiperazin-1-yl}carbonyl)benzyl]-4,5-dimethylpyridazin-3(2H)-one]	< 5000 nM
Cc1c(Cc2ccc(F)c(C(=O)N3CCN(CC(C)(C)O)C(=O)C3)c2)n[nH]c(=O)c1C [Example 173, 6-(4-Fluoro-3-{[4-(2-hydroxy-2-methylpropyl)-3-oxopiperazin-1-yl]carbonyl}benzyl)-4,5-dimethylpyridazin-3(2H)-one]	< 5000 nM
Cc1c(Cc2ccc(F)c(C(=O)N3CC(=O)N(c4ccc(C#N)c(F)c4)[C@@H](C)C3)c2)n[nH]c(=O)c1C [Example 174, 4-((2S)-4-{5-[(4,5-Dimethyl-6-oxo-1,6-dihydropyridazin-3-yl)methyl]-2-fluorobenzoyl}-2-methyl-6-oxopiperazin-1-yl)-2-fluorobenzonitrile]	< 50 nM
Cc1c(Cc2ccc(F)c(C(=O)N3CC(=O)N(C4CCC4)[C@H](C)C3)c2)n[nH]c(=O)c1C [Example 175, 6-(3-{[(3R)-4-Cyclobutyl-3-methyl-5-oxopiperazin-1-yl]carbonyl}-4-fluorobenzyl)-4,5-dimethylpyridazin-3(2H)-one]	< 50 nM
Cc1c(Cc2ccc(F)c(C(=O)N3CC(=O)N(c4cccc(Cl)c4)[C@@H](C)C3)c2)n[nH]c(=O)c1C [Example 177, 6-(3-{[(3S)-4-(3-Chlorophenyl)-3-methyl-5-oxopiperazin-1-yl]carbonyl}-4-fluorobenzyl)-4,5-dimethylpyridazin-3(2H)-one]	< 50 nM
Cc1c(Cc2ccc(F)c(C(=O)N3CC(=O)N(c4cccc(Cl)c4)[C@H](C)C3)c2)n[nH]c(=O)c1C [Example 178, 6-(3-{[(3R)-4-(3-Chlorophenyl)-3-methyl-5-oxopiperazin-1-yl]carbonyl}-4-fluorobenzyl)-4,5-dimethylpyridazin-3(2H)-one]	< 50 nM
COC[C@@H](C)N1CCN(C(=O)c2cc(Cc3n[nH]c(=O)c(C)c3C)ccc2F)CC1=O [Example 179, 6-[4-Fluoro-3-({4-[(1R)-2-methoxy-1-methylethyl]-3-oxopiperazin-1-yl}carbonyl)benzyl]-4,5-dimethylpyridazin-3(2H)-one]	< 5000 nM
CC[C@@H]1CN(C(=O)c2cc(Cc3n[nH]c(=O)c(C)c3C)ccc2F)CC(=O)N1C1CCC1 [Example 180, 6-(3-{[(3R)-4-Cyclobutyl-3-ethyl-5-oxopiperazin-1-yl]carbonyl}-4-fluorobenzyl)-4,5-dimethylpyridazin-3(2H)-one]	< 5000 nM
CCC1CN(C(=O)c2cc(Cc3n[nH]c(=O)c(C)c3C)ccc2F)CC(=O)N1C1CCCCC1 (stereo not drawn) [Example 184, 6-{3-[(4-Cyclohexyl-3-ethyl-5-oxopiperazin-1-yl)carbonyl]-4-fluorobenzyl}-4,5-dimethylpyridazin-3(2H)-one]	50 to 500 nM
CCC1CN(C(=O)c2cc(Cc3n[nH]c(=O)c(C)c3C)ccc2F)CC(=O)N1C1CCCC1 (stereo not drawn) [Example 186, 6-{3-[(4-Cyclopentyl-3-ethyl-5-oxopiperazin-1-yl)carbonyl]-4-fluorobenzyl}-4,5-dimethylpyridazin-3(2H)-one]	< 5000 nM
Cc1c(Cc2ccc(F)c(C(=O)N3CC(=O)N(c4ccc(Cl)c(F)c4)[C@H](C)C3)c2)n[nH]c(=O)c1C [Example 187, 6-(3-{[(3R)-4-(4-Chloro-3-fluorophenyl)-3-methyl-5-oxopiperazin-1-yl]carbonyl}-4-fluorobenzyl)-4,5-dimethylpyridazin-3(2H)-one]	< 50 nM
Cc1c(Cc2ccc(F)c(C(=O)N3CC(=O)N(C4CC(F)(F)C4)C(C)C3)c2)n[nH]c(=O)c1C (stereo not drawn) [Example 188, 6-(3-{[4-(3,3-Difluorocyclobutyl)-3-methyl-5-oxopiperazin-1-yl]carbonyl}-4-fluorobenzyl)-4,5-dimethylpyridazin-3(2H)-one]	< 50 nM
Cc1c(Cc2ccc(F)c(C(=O)N3CC(=O)N(c4ccc(C#N)cc4)[C@H](C)C3)c2)n[nH]c(=O)c1C [Example 189, 4-((2R)-4-{5-[(4,5-Dimethyl-6-oxo-1,6-dihydropyridazin-3-yl)methyl]-2-fluorobenzoyl}-2-methyl-6-oxopiperazin-1-yl)benzonitrile]	< 50 nM
